The source of these data is PubChem BioAssay (NCI).

Test systems include CAKI-1 renal; HOP-62 NSCLC; IGROV1 ovarian; OVCAR-8 ovarian; SK-OV-3 ovarian; SNB-19 CNS; T-47D breast; EKVX NSCLC; LOX IMVI melanoma; A498 renal.
Holding throughout (assay): inhibition of tumour cell growth, NCI panel, 48 h

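Growth conditions: 96-well plates. Treatment: test compound, 48 hours, 5 concentrations. Analysis: linear interpolation between bracketing concentrations; unreached endpoints set to highest concentration. Definition used: TGI = concentration required for complete inhibition of growth.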 Bounds are passed on as bounds.

On to `Cc1ccc(NC(=S)NNC(=O)c2cc(-c3ccccc3)nc3ccccc23)cc1`, for which the TGI in the assay with CAKI-1 renal turned out to be 45.9 µM; with HOP-62 NSCLC, 27.8 µM; with IGROV1 ovarian it was 36.7 µM; in the assay with OVCAR-8 ovarian it was 47.8 µM; in the assay on SK-OV-3 ovarian, 30.3 µM; with SNB-19 CNS it was 42.4 µM. The compound also showed a TGI with T-47D breast of 21.3 µM.
For the compound `CN(CCN(C)C(=S)NN)C(=S)NN`, the TGI with CAKI-1 renal, in the assay with EKVX NSCLC, with HOP-62 NSCLC, in the assay on IGROV1 ovarian, in the assay with LOX IMVI melanoma and in the assay on SK-OV-3 ovarian was > 100 µM throughout. In addition, the TGI with SNB-19 CNS and with T-47D breast was > 100 µM throughout.
As to `Cc1cc(C)nc(NS(=O)(=O)c2ccc(NNC(=O)c3cccc4c(=O)c5ccccc5[nH]c34)cc2)n1`, the TGI was > 100 µM in the assay on CAKI-1 renal; 98.9 µM in the assay with EKVX NSCLC; > 100 µM in the assay on HOP-62 NSCLC; > 100 µM with IGROV1 ovarian; > 100 µM in the assay on LOX IMVI melanoma; > 100 µM in the assay with OVCAR-8 ovarian. Besides, the TGI with SK-OV-3 ovarian, in the assay on SNB-19 CNS and in the assay with T-47D breast was > 100 µM in each case.
As for `COc1ccc(OC)c(N2C(=O)CSC2c2cc(OC)c(OC)c(OC)c2)c1` (stereo unspecified), the TGI in the assay on A498 renal, in the assay with CAKI-1 renal, with EKVX NSCLC, in the assay with IGROV1 ovarian, in the assay with LOX IMVI melanoma and in the assay on OVCAR-8 ovarian was > 100 µM throughout. The TGI with SK-OV-3 ovarian and in the assay on SNB-19 CNS was > 100 µM each time.
Regarding `CC(C)C1=C(Cc2ccccc2)C(=O)O/C1=C\c1cc(Cl)c(O)c(Cl)c1`, the TGI amounted to 53.1 µM in the assay on A498 renal; 29.9 µM in the assay on CAKI-1 renal; 65.1 µM in the assay on EKVX NSCLC; 42.4 µM in the assay with HOP-62 NSCLC; 44.1 µM in the assay with IGROV1 ovarian; 34.8 µM in the assay with LOX IMVI melanoma. For the same compound, the TGI is 42.4 µM with OVCAR-8 ovarian, 39.7 µM with SK-OV-3 ovarian and 37.1 µM with SNB-19 CNS.
On to `CC1(C)OC(=C(C#N)C#N)C(C#N)=C1/C=C/c1ccncc1`, for which the TGI was 19.4 µM in the assay on A498 renal; 3.64 µM in the assay on CAKI-1 renal; 5.46 µM with EKVX NSCLC; 4.21 µM in the assay with IGROV1 ovarian; 3.51 µM in the assay with LOX IMVI melanoma; 3.29 µM with OVCAR-8 ovarian. Also, the results for the TGI in the assay on SK-OV-3 ovarian, with SNB-19 CNS and in the assay with T-47D breast were 16.8 µM, 6.16 µM and 6.26 µM, respectively.
`O=C1NN=C2C=C(c3ccc(Cl)cc3)CC(c3cccc(Cl)c3)C12` (stereo unspecified): the TGI with CAKI-1 renal was > 100 µM; with EKVX NSCLC it was 64.7 µM; in the assay on HOP-62 NSCLC, > 100 µM; with IGROV1 ovarian it was 59.1 µM; with LOX IMVI melanoma, 33.4 µM; in the assay with OVCAR-8 ovarian it was > 100 µM. Further, the TGI is > 100 µM with SK-OV-3 ovarian, 36.1 µM in the assay with SNB-19 CNS and > 100 µM with T-47D breast.
With `CC(/C=N\NC(=S)N1CCCCC1)=N/NC(=S)N1CCCCC1`, the TGI with A498 renal was 3.59 µM; in the assay on CAKI-1 renal, 10.7 µM; in the assay with EKVX NSCLC, 14.8 µM; with HOP-62 NSCLC, 11 µM; with IGROV1 ovarian it was 8.3 µM; in the assay with LOX IMVI melanoma, > 100 µM. In addition, the TGI came out at 16.1 µM in the assay with OVCAR-8 ovarian, 6.08 µM in the assay with SK-OV-3 ovarian and 35.7 µM in the assay on SNB-19 CNS.
As for `CC12CC(C#N)(C#N)C(C#N)(CO1)C(=N)O2` (stereo unspecified), the TGI in the assay on A498 renal, in the assay on CAKI-1 renal, in the assay on EKVX NSCLC, with IGROV1 ovarian, in the assay with LOX IMVI melanoma and in the assay on OVCAR-8 ovarian was > 100 µM in each case. The TGI in the assay with SK-OV-3 ovarian, in the assay with SNB-19 CNS and in the assay on T-47D breast was > 100 µM throughout.
Consider `CN1C(=O)C(CC=O)(C(C)(C)C)c2ccccc21` (stereo unspecified), for which the TGI with A498 renal, in the assay with CAKI-1 renal, with HOP-62 NSCLC, in the assay with LOX IMVI melanoma, in the assay with SK-OV-3 ovarian and with SNB-19 CNS was > 100 µM each time. Besides, the TGI in the assay with T-47D breast was > 100 µM.
Turning to `CCOP(=O)(O)C(C)(C)NC`, the TGI with A498 renal, with EKVX NSCLC, with HOP-62 NSCLC, in the assay with IGROV1 ovarian, in the assay with LOX IMVI melanoma and in the assay with OVCAR-8 ovarian was > 100 µM in each case. Besides, the TGI in the assay on SK-OV-3 ovarian, with SNB-19 CNS and in the assay on T-47D breast was > 100 µM each time.
As for `Cc1ccc(C(=O)N/N=C(\N=Nc2ccccc2[N+](=O)[O-])c2ccc(N(C)C)cc2)cc1`, the TGI in the assay on CAKI-1 renal, in the assay on EKVX NSCLC, in the assay on IGROV1 ovarian, in the assay with LOX IMVI melanoma, with OVCAR-8 ovarian and in the assay with SK-OV-3 ovarian was > 100 µM each time. The TGI with SNB-19 CNS is > 100 µM.
With `CC(C)(C)[Si](C)(C)OC1/C(=C/C#N)C(n2ccc(=O)[nH]c2=O)OC1CO` (stereo unspecified), the TGI with A498 renal, with CAKI-1 renal, in the assay with HOP-62 NSCLC, in the assay on OVCAR-8 ovarian, in the assay with SK-OV-3 ovarian and in the assay with SNB-19 CNS was > 100 µM throughout. For the same compound, in the assay with T-47D breast, the TGI was > 100 µM.
Take `CCc1nc2ccc(N=NN(C)C)cc2[nH]1`: the TGI in the assay on CAKI-1 renal, in the assay with EKVX NSCLC, in the assay with HOP-62 NSCLC, in the assay with IGROV1 ovarian, in the assay with OVCAR-8 ovarian and in the assay on SNB-19 CNS was > 100 µM each time. In addition, the TGI in the assay with T-47D breast was > 100 µM.
For `CC[C@]1(Cc2ccc(OC)c(OC)c2)[C@@H]2C[C@@H](C3OCCO3)ON2O[C@H](OC2CCCC2(c2ccccc2)c2ccccc2)[C@@H]1OC(C)=O` (stereo partly specified), the TGI was found to be 82.1 µM in the assay with CAKI-1 renal; 44.6 µM in the assay with EKVX NSCLC; 41.5 µM in the assay on HOP-62 NSCLC; 50.1 µM with IGROV1 ovarian; 53.9 µM in the assay with LOX IMVI melanoma; 46.4 µM with OVCAR-8 ovarian. Further, the TGI with SK-OV-3 ovarian is > 100 µM; in the assay on SNB-19 CNS, 36.9 µM; with T-47D breast it was 50.3 µM.
With `CC(=O)Nc1ccc2cc(C)c(=O)[nH]c2n1`, the TGI with A498 renal, with CAKI-1 renal, in the assay on EKVX NSCLC, in the assay with IGROV1 ovarian, with OVCAR-8 ovarian and in the assay on SK-OV-3 ovarian was > 100 µM throughout. Further, the TGI with SNB-19 CNS and in the assay with T-47D breast was > 100 µM throughout.
